The record followed here is paper PMC6922598, “De novo design of a homo-trimeric amantadine-binding protein” (eLife, 2019).

Each structure is given as a SMILES string.

In this test the target is T1, ABP (amantadine-binding protein).
T1 construct: de novo designed homo-trimer; GSHMG//[…]
The test is described as follows: X-ray crystal structure ([…] Å) and neutron structure ([…] Å) of the complex; NMR titration with TITAN line shape fitting (Kd). Also noted: species or system synthetic construct.

For orientation: Kd means the equilibrium constant for the complex coming apart. A high value points to lower affinity. As for `NC12CC3CC(CC(C3)C1)C2` [amantadine], binding was put at a Kd of 24.1 ± 2.7 µM.
